{"source": "patent US7655225B2", "about": "“Methods of expanding stem and progenitor cells and expanded cell populations obtained thereby” (Gamida Cell, Ltd., priority 2002, dated 2010)", "key": {"mononuclear cells (MNC) [1]": {"test_system": "mononuclear cells (MNC)", "assay": "Ex vivo expansion of stem and progenitor cells in mixed cells culture: cell enumeration and FACS", "assay_type": "cell-based, human", "details": "for cumulative number of CD34+ cells: TEPA first three weeks only, FIGS. 16a-b; for cumulative number of CD34+ cells per culture bag: control 2.56×10^6; for Portion of CD34+ cells (%): control 0.2; for Number of CD34+ cells (×10^4): control 256.0", "description": "Sample collection and processing: Samples were obtained from umbilical cord blood after a normal full-term delivery and were frozen within 24 hours pospartum. The blood cells were thawed in Dextran buffer and incubated for […] in MEM (Biological Industries, Israel) supplemented with 10% fetal calf serum (FCS; Biological Industries). The cells were then layered on Ficoll-Hypaque (density 1.077 gram/ml; Sigma) and centrifuged at 400 g for 30 minutes at room temperature. The mononuclear cells in the interface layer were then collected, washed three times in phosphate-buffered saline (PBS; Biological Industries), and re-suspended in PBS containing 0.5% human serum albumin (HSA). The cells were then split into two fractions, the first being the mononuclear cells (MNC) and the second fraction was used for purifying CD34^+ cells by immunomagnetic separation using the “MiniMACS CD34^+ progenitor cell isolation kit” (Miltenyi Biotec, Auburn, Calif.) according to the manufacturer's recommendations. The purity of the CD34^+ cells obtained ranged between 95% and 98%, based on Flow Cytometry evaluation (see below). Ex vivo expansion of progenitor cells: The non-purified mononuclear cells (MNC), obtained as described hereinabove, were seeded in Culture Bags (American Fluoroseal Corp.), with alpha minimal essential medium supplemented with 10% fetal bovine serum (FBS, Biological Industries), at a concentration of about 10^6 cells/ml. The purified CD34^+ cells were similarly seeded in the Culture Bags, at a concentration of […]. The media were supplemented with TEPA chelator and/or with the following human recombinant cytokines (all obtained from Perpo Tech, Inc., Rocky Hill, N.J.): Thrombopoietin (TPO), 50 ng/ml; interleukin 6 (IL-6), 50 ng/ml; FLT-3 ligand, 50 ng/ml and a stem cell factor (SCF), 50 ng/ml; occasionally SCF was replaced by IL-3, 20 ng/ml. For non-hemopoietic differentiation, FGF, EGF, NGF, VEGF, LIF or Hepatocyte growth factor, were used alone or in various combinations. All cultures were incubated at 37° C. in an atmosphere of 5% CO2 in air with extra humidity. At weekly intervals, the cell cultures were semi-depopulated and supplemented with fresh medium containing cytokines. Following different incubation periods, cells were harvested, stained with trypan blue and enumerated. Determining the density of stem and progenitor subset populations following expansion was carried out as described in the experimental procedures section of Example 3 above. Non-purified mononuclear cells (MNC) were seeded in culture bags and were provided with nutrients and cytokines as described above. The MNC cultures were either treated or untreated (untreated controls) with TEPA-chelator. The treated MNC cultures were supplemented with TEPA for only the first three weeks and from week three onward were topped with chelator-free media. The pre-purified CD34^+ cultures were not supplemented with TEPA and served as positive controls. The cultures were analyzed weekly during a 12-week period. Non-purified (mixed cells) mononuclear cells (MNC) were seeded in culture bags and were provided with nutrients and cytokines as described in Example 4 above. The mixed cell cultures were either untreated (control) or treated with Cu-TEPA chelate. The treated MNC cultures were supplemented with Cu-TEPA chelate for only the first three weeks and from week three onward were topped with chelator-free media. All cultures were analyzed […]."}, "mononuclear cells (MNC) [2]": {"test_system": "mononuclear cells (MNC)", "assay": "Morphological analysis of cells from long-term MNC cultures", "assay_type": "cell-based, human", "details": "untreated: fully differentiated", "description": "Morphological assessment: In order to characterize the resulting culture populations, aliquots of cells were deposited on a glass slide (cytocentrifuge, Shandon, Runcorn, UK), fixed and stained in May-Grunwald and Giemsa stain. Cloning potential evaluation, morphological assessment and surface antigen analyses were carried out as described in the experimental procedures section of Example 1 above."}, "CD34+ cells [3]": {"test_system": "CD34+ cells", "assay": "Self-renewal potential: colony-forming cells (CFU) from CD34+ cultures", "assay_type": "cell-based, human", "details": "for number of colony-forming cells of CD34+ vs untreated control: 5 and 7 weeks incubation, different concentrations, TPO, FLT-3, IL-6, IL-3, FIGS. 15a-c; for CFUc: eight-week cultures, FIG. 2d, control 0; for numbers of CD34+ Lin− colony-forming cells, fold higher than untreated control: four weeks, with IL-3, FIG. 6d", "source_text": "Ex vivo expansion of progenitor cells: Enriched CD34^+ cell fractions were cultures in 24-well Costar Cell Culture Clusters (Corning Inc., Corning, N.Y.) or in Culture Bags (American Fluoroseal Corp.) with alpha minimal essential medium supplemented with 10% fetal bovine serum (FBS, Biological Industries), at about 1-3×10^4 cells/ml medium. The media were further supplemented with the following human recombinant cytokines (all obtained from Perpo Tech, Inc., Rocky Hill, N.J.): Thrombopoietin (TPO), 50 ng/ml; interleukin 6 (IL-6), 50 ng/ml; FLT-3 ligand, 50 ng/ml; and IL-3, 20 ng/ml. The cultures were incubated at 37° C. in an atmosphere of 5% CO2 in air with extra humidity. At weekly intervals cell cultures were semi-depopulated and supplemented with fresh medium containing the cytokines. Following different incubation periods, the cells were harvested, stained with trypan blue and enumerated. The total cell counts, numbers of CD34^+ cells and subsets thereof, and the number of colony-forming cells (CFU) are presented herein as cumulative numbers, with the assumption that the cultures had not been passaged, namely, the numbers of cells per ml were multiplied by the number of passages performed. Self-renewal potential evaluations: The self-renewal potential of stem cells was determined in vitro by long-term colony formation. Cells were washed and seeded in a semi-solid methylcellulose medium supplemented with 2 IU/ml erythropoietin ([…] Int., Switzerland), stem cell factor and IL-3, both at 20 ng/ml (Perpo Tech), and G-CSF and GM-CSF, both at 10 ng/ml (Perpo Tech). The resulting colonies were scored after two weeks of incubation at 37° C. in a humidified atmosphere of 5% CO2 in air. Colonies were classified as blast, mixed, erythroid, myeloid, and megakaryocytic, according to their cellular composition."}, "CD34+ cells [4]": {"test_system": "CD34+ cells", "assay": "Morphological assessment of cultured CD34+ cells", "assay_type": "cell-based, human", "details": "8-weeks culture; control: mainly differentiated cells; FIGS. 3a-b", "source_text": "Morphological assessment: In order to characterize the resulting culture populations, aliquots of cells were deposited on a glass slide (cytocentrifuge, Shandon, Runcorn, UK), fixed and stained in May-Grunwald and Giemsa stain."}, "platelets": {"test_system": "platelets", "assay": "In vivo recovery of platelets after gamma-irradiation", "parameters": "species or system mice (BALB/C X C57B1/6/F1)", "details": "single treatment, 30 μM; irradiated mice", "description": "In this experiment, ten mice (BALB/C X C57B1/6/F1) were gamma-irradiated (700 cGy) so as to mimic an irradiation therapy situation that destroys platelets. One day after irradiation five (out of ten) mice were administered with 30 μM of Cu-TEPA, while the other five mice were non-treated. The platelet levels in all mice were enumerated one week after irradiation. […] The results of this experiment illustrate that a copper chelate can effectively enhance the recovery of hematopoietic cells in subjects exposed to irradiation treatment."}, "[5]": {"details": "50 μM, MNC culture, eight weeks after seeding"}, "[6]": {"details": "100 μM, MNC culture, eight weeks after seeding"}}, "data": [{"smiles": "NCCNCCNCCNCCN", "note": "[TEPA chelator, tetraethylenepentamine]", "values": [{"measurement": "cumulative number of CD34+CD38− cells", "setting": "mononuclear cells (MNC) [1]; MNC culture, after 2 weeks, FIG. 17", "result": "non-detectable"}, {"measurement": "cumulative number of CD34+ cells", "setting": "mononuclear cells (MNC) [1]; MNC culture, after 2 weeks", "result": "non-detectable"}, {"measurement": "cumulative number of CD34+CD38− cells", "setting": "mononuclear cells (MNC) [1]; MNC culture, after 12 weeks, FIG. 17", "result": "2.5×10^7 cells/ml"}, {"measurement": "cumulative number of CD34+ cells", "setting": "mononuclear cells (MNC) [1]; MNC culture, after 12 weeks", "result": "over 8×10^7 cells/ml"}, {"measurement": "stem and progenitor cells densities vs pre-purified CD34+ cells cultures (not treated with TEPA)", "setting": "mononuclear cells (MNC) [1]; TEPA-treated MNC cultures, 12-week period", "result": "either equalized or surpassed"}, {"measurement": "morphological analysis of cells", "setting": "mononuclear cells (MNC) [2]", "result": "high proportion of non-differentiated cells"}, {"measurement": "number of colony-forming cells of CD34+ vs untreated control", "setting": "CD34+ cells [3]", "result": "substantially increased"}]}, {"smiles": "NCCNCCNCCNCCN.[Cl-].[Cl-].[Cu+2]", "note": "[TEPA-Cu chelate, tetraethylenepentamine-copper chelate]", "values": [{"measurement": "morphological analysis of culture", "setting": "CD34+ cells [4]", "result": "mainly blast-like cells"}, {"measurement": "cumulative number of CD34+ cells per culture bag", "setting": "mononuclear cells (MNC) [1]; 50 μM, MNC culture, 8 weeks", "result": "12.37×10^6"}, {"measurement": "Portion of CD34+ cells (%)", "setting": "mononuclear cells (MNC) [1]; [5]", "result": 1.4, "unit": "%"}, {"measurement": "Number of CD34+ cells (×10^4)", "setting": "mononuclear cells (MNC) [1]; [5]", "result": "1237.3 ×10^4"}, {"measurement": "cumulative number of CD34+CD38− cells", "setting": "mononuclear cells (MNC) [1]; 100 μM, MNC culture, 8 weeks, control 2.1×10^5", "result": "6.1×10^5"}, {"measurement": "cumulative number of CD34+ cells per culture bag", "setting": "mononuclear cells (MNC) [1]; 100 μM, MNC culture, 8 weeks", "result": "32.85×10^6"}, {"measurement": "Portion of CD34+ cells (%)", "setting": "mononuclear cells (MNC) [1]; [6]", "result": 1.2, "unit": "%"}, {"measurement": "Nunber of CD34/38− cells (×10^4)", "setting": "mononuclear cells (MNC) [1]; 100 μM, MNC culture, eight weeks after seeding, control 21", "result": "61 ×10^4"}, {"measurement": "Number of CD34+ cells (×10^4)", "setting": "mononuclear cells (MNC) [1]; [6]", "result": "3285.3 ×10^4"}, {"measurement": "recovery of platelets vs non-treated control", "setting": "platelets", "result": "significantly accelerated"}, {"measurement": "CFUc", "setting": "CD34+ cells [3]; 5 μM", "result": 0, "unit": "CFUc"}, {"measurement": "CFUc", "setting": "CD34+ cells [3]; 10 μM", "result": 1, "unit": "CFUc"}, {"measurement": "CFUc", "setting": "CD34+ cells [3]; 15 μM", "result": 30, "unit": "CFUc"}, {"measurement": "CFUc", "setting": "CD34+ cells [3]; 20 μM", "result": 120, "unit": "CFUc"}, {"measurement": "numbers of CD34+ Lin− colony-forming cells, fold higher than untreated control", "setting": "CD34+ cells [3]; 20 μM", "result": 7, "unit": "fold"}, {"measurement": "CFUc", "setting": "CD34+ cells [3]; 40 μM", "result": 400, "unit": "CFUc"}, {"measurement": "numbers of CD34+ Lin− colony-forming cells, fold higher than untreated control", "setting": "CD34+ cells [3]; 40 μM", "result": 9, "unit": "fold"}, {"measurement": "numbers of CD34+ Lin− colony-forming cells, fold higher than untreated control", "setting": "CD34+ cells [3]; 50 μM", "result": 7.5, "unit": "fold"}, {"measurement": "effectiveness of higher vs lower concentrations on colony-forming cells", "setting": "CD34+ cells [3]; 100 μM vs 10 and 50 μM, 8 week-old cultures, FIG. 1", "result": "substantially more effective"}, {"measurement": "number of colony-forming cells of CD34+ vs untreated control", "setting": "CD34+ cells [3]", "result": "substantially increased"}, {"measurement": "colony-forming cells of CD34+ vs cultures treated only with cytokines", "setting": "CD34+ cells [3]; 8 week-old cultures, FIG. 1", "result": "substantially more colony-forming cells"}, {"measurement": "numbers of CFUc vs non-treated control (cytokines only)", "setting": "CD34+ cells [3]; longer incubation (5, 6, 8 weeks), chelate supplemented first three weeks, FIGS. 2b-d", "result": "substantially higher"}]}]}
